According to the Kinase Knowledgebase extract (Sharma et al. 2016):
Where “and” joins values, the source holds several entries; their conditions need not be identical. Equal entries are not always repeated.

Each compound was assayed against EGFR (UniProt P00533) (assay: Inhibition of EGFR Kinase Activity).
Sequence of EGFR (P00533 whole entry, looked up): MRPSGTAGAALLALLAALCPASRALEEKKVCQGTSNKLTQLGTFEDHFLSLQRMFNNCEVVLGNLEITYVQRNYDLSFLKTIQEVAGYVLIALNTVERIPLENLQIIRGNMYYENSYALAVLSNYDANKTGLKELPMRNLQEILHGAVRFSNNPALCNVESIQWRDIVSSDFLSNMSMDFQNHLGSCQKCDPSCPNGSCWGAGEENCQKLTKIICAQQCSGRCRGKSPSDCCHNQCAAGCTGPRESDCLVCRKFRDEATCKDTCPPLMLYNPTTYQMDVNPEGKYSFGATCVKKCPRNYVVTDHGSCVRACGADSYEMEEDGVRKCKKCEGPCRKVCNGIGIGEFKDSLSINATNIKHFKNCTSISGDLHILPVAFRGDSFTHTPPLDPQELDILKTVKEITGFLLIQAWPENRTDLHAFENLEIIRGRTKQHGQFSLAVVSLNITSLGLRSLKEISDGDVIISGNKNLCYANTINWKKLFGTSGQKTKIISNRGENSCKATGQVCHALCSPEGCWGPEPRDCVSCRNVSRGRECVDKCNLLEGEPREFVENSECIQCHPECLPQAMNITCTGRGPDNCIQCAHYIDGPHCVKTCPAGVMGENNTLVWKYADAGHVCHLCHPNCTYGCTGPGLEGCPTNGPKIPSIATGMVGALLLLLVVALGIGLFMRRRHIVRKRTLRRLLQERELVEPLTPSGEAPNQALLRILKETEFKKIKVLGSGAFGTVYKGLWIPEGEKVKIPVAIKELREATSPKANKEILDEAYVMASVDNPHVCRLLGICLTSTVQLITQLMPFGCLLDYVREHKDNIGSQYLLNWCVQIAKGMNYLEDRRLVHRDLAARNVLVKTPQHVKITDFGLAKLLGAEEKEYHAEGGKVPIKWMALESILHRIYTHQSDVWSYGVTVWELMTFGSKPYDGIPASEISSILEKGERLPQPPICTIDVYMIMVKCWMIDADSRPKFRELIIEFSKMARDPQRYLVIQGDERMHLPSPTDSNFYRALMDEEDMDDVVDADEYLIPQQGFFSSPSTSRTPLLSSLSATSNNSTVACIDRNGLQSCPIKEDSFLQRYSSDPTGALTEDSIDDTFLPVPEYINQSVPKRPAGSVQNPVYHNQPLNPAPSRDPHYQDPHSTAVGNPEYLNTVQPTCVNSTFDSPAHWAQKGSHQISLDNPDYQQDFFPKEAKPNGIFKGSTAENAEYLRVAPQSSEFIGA

SMILES	IC50
Nc1cc2ncnc(Nc3cccc(Br)c3)c2cc1N	0.12 nM
Ic1cccc(Nc2ncnc3ccccc23)c1	81 nM
O=[N+]([O-])c1ccc2c(Nc3cccc(Br)c3)ncnc2c1	1000 nM
O=[N+]([O-])c1ccc2ncnc(Nc3cccc(Br)c3)c2c1	912 nM
Fc1cc2c(Nc3cccc(Br)c3)ncnc2cn1	125 nM
Nc1cc2ncnc(Nc3ccccc3)c2cn1	251 nM
CCCOc1cc2ncnc(Nc3cccc(Br)c3)c2cc1OCCC	0.17 nM
COc1cc2ncnc(Nc3cccc(C(F)(F)F)c3)c2cc1OC	0.24 nM
OS(=O)(=O)CCNN1=CC=C2N=CN=C(Nc3cccc(Br)c3)C2=C1	1.4 nM
COc1ccc2c(Nc3cccc(Br)c3)ncnc2c1	10 nM
CNc1cc2ncnc(Nc3cccc(Br)c3)c2cc1[N+](=O)[O-]	69 nM
CN(C)CCCCNN1=CC=C2N=CN=C(Nc3cccc(C)c3)C2=C1	5.4 nM
CN(CC(=O)O)N1=CC=C2N=CN=C(Nc3cccc(Br)c3)C2=C1	16 nM
COc1ccc2c(Nc3cccc(Br)c3)ncnc2n1	260 nM
Brc1cccc(Nc2ncnc3cnc(NCCn4ccnc4)nc23)c1	2.3 nM
Nc1cc2ncnc(Nc3ccccc3Br)c2cn1	245 nM
O=[N+]([O-])c1ccc2c(Nc3cccc(Cl)c3)ncnc2c1	812 nM
Brc1cccc(Nc2ncnc3cnc(NCCc4c[nH]cn4)nc23)c1	0.2 nM
O=[N+]([O-])c1ccc2c(Nc3cccc(I)c3)ncnc2c1	549 nM
CN(C)CCCNN1=CC=C2N=CN=C(Nc3cccc(Br)c3)C2=C1	8.9 nM
CNc1ccc2ncnc(Nc3cccc(Br)c3)c2n1	3.1 nM
COc1cc2ncnc(Nc3cccc(I)c3)c2cc1OC	0.89 nM
Clc1cccc(Nc2ncnc3ccccc23)c1	23.4 nM

SMILES	IC50
OCCN(CCO)N1=CC=C2N=CN=C(Nc3cccc(Br)c3)C2=C1	12 nM
OCC(O)CNN1=CC=C2N=CN=C(Nc3cccc(Br)c3)C2=C1	0.9 nM
Nc1cc2ncnc(Nc3ccc(C(F)(F)F)cc3)c2cn1	4780 nM
CN1CCN(CCCNN2=CC=C3N=CN=C(Nc4cccc(Br)c4)C3=C2)CC1	5 nM
OCCNN1=CC=C2N=CN=C(Nc3cccc(Br)c3)C2=C1	0.2 nM
Nc1ccc2ncnc(Nc3cccc(C(F)(F)F)c3)c2c1	575 nM
CN1CCN(CCCNN2=CC=C3N=CN=C(Nc4cccc(C)c4)C3=C2)CC1	5.6 nM
Nc1cc2c(Nc3cccc(Br)c3)ncnc2cc1Cl	6.6 nM
CNc1ccc2ncnc(Nc3cccc(Br)c3)c2c1	4 nM
COc1cc2ncnc(Nc3cccc(Br)c3)c2cc1N	3.8 nM
Nc1ccc2ncnc(Nc3cccc(Br)c3)c2n1	7.7 nM
CN(CCO)N1=CC=C2N=CN=C(Nc3cccc(Br)c3)C2=C1	2.6 nM
COc1cc2ncnc(Nc3cccc(Br)c3)c2cc1[N+](=O)[O-]	15 nM
CN(C)c1ccc2ncnc(Nc3cccc(Br)c3)c2n1	9.7 nM
Nc1cc2ncnc(Nc3cccc(O)c3)c2cn1	70 nM
COc1ncc2ncnc(Nc3cccc(Br)c3)c2n1	3.8 nM
CN(C)c1ccc2c(Nc3cccc(Br)c3)ncnc2c1	11 nM
Brc1cccc(NC2=NC=NC3=CC=N(NCCCn4ccnc4)C=C23)c1	0.5 nM
O=[N+]([O-])c1cc2c(Nc3cccc(Br)c3)ncnc2cc1Cl	25 nM
Cc1cccc(NC2=NC=NC3=CC=N(NCCCn4ccnc4)C=C23)c1	3.5 nM
OC(=O)CNN1=CC=C2N=CN=C(Nc3cccc(Br)c3)C2=C1	1.5 nM
Fc1cc2ncnc(Nc3cccc(Br)c3)c2cn1	13 nM
Nc1ccc2c(Nc3ccccc3)ncnc2c1	100 nM

SMILES	IC50
Nc1cc2ncnc(Nc3ccccc3N)c2cn1	5370 nM
CN(C)CCCCNN1=CC=C2N=CN=C(Nc3cccc(Br)c3)C2=C1	7.4 nM
COc1cc2ncnc(Nc3cccc(Br)c3)c2cn1	39 nM
COc1cc2ncnc(Nc3ccccc3)c2cc1OC	29 nM
COc1ccc(Nc2ncnc3cc(N)ncc23)cc1	670 nM
Fc1cccc(Nc2ncnc3ccccc23)c1	56 nM
Brc1cccc(NC2=NC=NC3=CC=N(NCCCN4CCOCC4)C=C23)c1	1.9 nM
CNc1cc2ncnc(Nc3cccc(Br)c3)c2cc1N	0.69 nM
Nc1cc2ncnc(Nc3cccc(Br)c3)c2cn1	10 nM
Clc1ncc2ncnc(Nc3cccc(Br)c3)c2n1	83 nM
Clc1cc2c(Nc3cccc(Br)c3)ncnc2cn1	40 nM
COc1cc2c(Nc3cccc(Br)c3)ncnc2cn1	2.6 nM
NNN1=CC=C2N=CN=C(Nc3cccc(Br)c3)C2=C1	7.2 nM
OC(=O)CCNN1=CC=C2N=CN=C(Nc3cccc(Br)c3)C2=C1	0.6 nM
CN(C)CCCCCNN1=CC=C2N=CN=C(Nc3cccc(Br)c3)C2=C1	8.5 nM
CN(C)c1ccc2c(Nc3cccc(Br)c3)ncnc2n1	330 nM
OCCN(CCO)CCCNN1=CC=C2N=CN=C(Nc3cccc(Br)c3)C2=C1	1.2 nM
Brc1cccc(Nc2ncnc3cnc(NCCN4CCOCC4)nc23)c1	0.8 nM
Nc1ncc2ncnc(Nc3cccc(Br)c3)c2n1	1.5 nM
CC(=O)Nc1ccc2c(Nc3cccc(Br)c3)ncnc2c1	40 nM
Nc1ccc2ncnc(Nc3ccccc3)c2c1	776 nM

Second part, the compound after the results:

IC50	SMILES
0.7 nM	CNc1ncc2ncnc(Nc3cccc(Br)c3)c2n1
380 nM	Cc1cccc(Nc2ncnc3cnc(Cl)nc23)c1
1810 nM	CN(C)c1cccc(Nc2ncnc3cc(N)ncc23)c1
29 nM	CC(=O)Nc1cc2ncnc(Nc3cccc(Br)c3)c2cn1
850 nM	Nc1cc2ncnc(Nc3cccc(F)c3)c2cn1
3 nM	Cc1cccc(Nc2ncnc3cnc(NCCc4c[nH]cn4)nc23)c1
912 nM	Cc1cccc(Nc2ncnc3ccccc23)c1
5.4 nM	Brc1cccc(NC2=NC=NC3=CC=N(NCCCCN4CCOCC4)C=C23)c1
56 nM and 120 nM	COc1ccc2ncnc(Nc3ccccc3)c2c1
45 nM	CN(C)CCNN1=CC=C2N=CN=C(Nc3cccc(Br)c3)C2=C1
0.006 nM	CCOc1cc2ncnc(Nc3cccc(Br)c3)c2cc1OCC
13 nM	CNc1ncc2ncnc(Nc3ccccc3)c2n1
0.97 nM	COc1cc2ncnc(Nc3ccc(Br)cc3)c2cc1OC
27.5 nM	Brc1cccc(Nc2ncnc3ccccc23)c1
588 nM	FC(F)(F)c1cccc(Nc2ncnc3ccccc23)c1
3.2 nM	CN(CC(O)CO)N1=CC=C2N=CN=C(Nc3cccc(Br)c3)C2=C1

IC50	SMILES
0.2 nM	OC(=O)CCCNN1=CC=C2N=CN=C(Nc3cccc(Br)c3)C2=C1
0.17 nM	Oc1cc2ncnc(Nc3cccc(Br)c3)c2cc1O
4.7 nM	Oc1ccc2c(Nc3cccc(Br)c3)ncnc2c1
4 nM	Cc1cccc(Nc2ncnc3cnc(N(C)C)nc23)c1
14 nM	OCN(CO)N1=CC=C2N=CN=C(Nc3cccc(Br)c3)C2=C1
354 nM	COc1ccc2ncnc(Nc3cccc(Br)c3)c2c1
40 nM	CN(C)CCN(C)N1=CC=C2N=CN=C(Nc3cccc(Br)c3)C2=C1
3710 nM	COc1ccccc1Nc1ncnc2cc(N)ncc12
4890 nM	CN(C)c1ccc(Nc2ncnc3cc(N)ncc23)cc1
160 nM	CN(C)c1cc2ncnc(Nc3cccc(Br)c3)c2cc1N
2.3 nM	Cc1cccc(Nc2ncnc3cnc(NCCN4CCOCC4)nc23)c1
17 nM	Cc1cccc(Nc2ncnc3cnc(N)nc23)c1
3.2 nM	Brc1cccc(NC2=NC=NC3=CC=N(NCCN4CCOCC4)C=C23)c1
85 nM	CN(C)c1ccc2ncnc(Nc3cccc(Br)c3)c2c1
0.9 nM	Brc1cccc(NC2=NC=NC3=CC=N(NCCc4c[nH]cn4)C=C23)c1
